The results in this text go back to ChEMBL document CHEMBL3399937, “(18)F-AmBF3-MJ9: a novel radiofluorinated bombesin derivative for prostate cancer imaging” (Bioorg Med Chem, 2015).

The assay addresses Gastrin-releasing peptide receptor (Rattus norvegicus) (UniProt P52500). Put plainly: Binding affinity to rat pancreatic acini GRPR.

Gastrin-releasing peptide receptor (Rattus norvegicus), sequence (P52500 whole entry): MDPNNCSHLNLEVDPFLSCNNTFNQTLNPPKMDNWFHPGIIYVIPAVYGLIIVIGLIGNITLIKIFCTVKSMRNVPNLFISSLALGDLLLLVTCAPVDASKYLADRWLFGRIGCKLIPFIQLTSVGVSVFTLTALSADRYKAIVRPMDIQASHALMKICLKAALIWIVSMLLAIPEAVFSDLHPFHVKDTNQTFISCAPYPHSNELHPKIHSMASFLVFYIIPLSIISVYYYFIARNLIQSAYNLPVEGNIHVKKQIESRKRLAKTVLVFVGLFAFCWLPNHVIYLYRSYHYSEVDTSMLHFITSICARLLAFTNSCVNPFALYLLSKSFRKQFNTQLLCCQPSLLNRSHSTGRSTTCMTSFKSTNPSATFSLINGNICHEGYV

With `CC(C)C[C@H](NC(=O)C[C@H](O)[C@H](CC(C)C)NC(=O)[C@H](Cc1cnc[nH]1)NC(=O)CNC(=O)[C@@H](NC(=O)[C@H](C)NC(=O)[C@H](Cc1c[nH]c2ccccc12)NC(=O)[C@H](CCC(N)=O)NC(=O)[C@H](N)Cc1ccccc1)C(C)C)C(N)=O`, the Activity came out at 0.9 nM.
